# Laboratory results taken from patent US20250387359A1, “COMPOUNDS AND METHODS FOR THE TREATMENT OF PARASITIC INFECTIONS” (THE BOARD OF TRUSTEES OF THE UNIVERSITY OF ILLINOIS, priority 2019, published 2025).
# How the values were obtained:
# [1] = Compound cytotoxicity assay (WST-1) in HCT-8 cells; format: cell-based, human; settings: human; HCT-8 cells, 24 h, WST-1
# Procedure: Compound cytotoxicity assay. […] A colorimetric assay using the cell proliferation reagent WST-1 (Roche, USA) for the quantification of cell viability was performed. […] When the cells were confluent, the old medium was replaced with fresh medium with or without varying concentrations of chemical compound. After 24 h of culture, 10 μl of the cell proliferation reagent WST-1, (for quantification of cell viability) was added to each well, mixed and the plates incubated for 1 h at 37 C with 5% CO2 in the dark. […] Molecular Devices, USA).
# [2] = target: recombinant CpLDH protein (Cryptosporidium parvum, UniProt Q9GT92, F198L/K295E/R251K); assay: biochemical; format: biochemical
# Chain of recombinant CpLDH protein (Q9GT92 whole entry F198L/K295E/R251K): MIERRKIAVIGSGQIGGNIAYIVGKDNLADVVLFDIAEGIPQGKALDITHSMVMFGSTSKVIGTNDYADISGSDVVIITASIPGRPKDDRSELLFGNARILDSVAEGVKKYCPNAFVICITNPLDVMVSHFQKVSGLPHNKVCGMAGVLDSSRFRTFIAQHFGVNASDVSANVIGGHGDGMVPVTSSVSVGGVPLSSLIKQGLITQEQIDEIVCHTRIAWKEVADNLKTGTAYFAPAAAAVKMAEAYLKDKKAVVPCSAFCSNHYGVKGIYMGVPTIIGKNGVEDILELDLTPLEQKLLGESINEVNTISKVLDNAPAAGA
# Procedure: Biochemical assays. The coding sequence of CpLDH was cloned from cDNA prepared from the AUCP-1 isolate of C. parvum, and the His-tagged CpLDH recombinant protein expressed in Escherichia coli, and purified in native form essentially as previously described (Int. J. Parasitol. 2017; 47(13), 867-874). Briefly, cDNA was prepared from total RNA extracted from the AUCP-1 isolate of C. parvum, and the coding sequencing of CpLDH (Genebank accession number AF274310.1) was PCR-amplified from the cDNA using a primer pair with a XhoI restriction site and a BamHI site. The PCR amplicon was cloned at the XhoI/BamHI site of the pET15b expression vector in-frame with the hexahistidine (His-tag) at the N-terminal and sequenced to confirm identity. The recombinant expression vector was transformed into protein expression E. coli BL21-CodonPlus-DE3-RIL (Stratagene). Transformed E. coli was cultured at 37° C. in Luria broth medium (supplemented with 100 μg/ml ampicillin and 34 μg/ml chloramphenicol) to an A600 of 0.8 followed by addition of 1 mM isopropyl-β-d-thiogalactopyranoside to induce protein expression. The expression E. coli was harvested and lysed under native conditions by sonicating in lysis buffer (50 mM NaH2PO4, 300 mM NaCl, 10 mM Imidazole, pH 8.0) containing a 1× EDTA-free protease inhibitor cocktail, 600 units benzonase and 30 kU lysozyme (EMD Millipore). The lysate was clarified by centrifugation and the His-tagged recombinant protein purified under native conditions by nickel-affinity chromatography according to the manufacturer's instructions (Novagen). The wash buffer used contained 50 mM NaH2PO4, 300 mM NaCl and 20 mM Imidazole, pH 8.0, while the elution buffer was composed of 50 mM NaH2PO4, 300 mM NaCl, 250 mM Imidazole, pH 8.0. The eluate was dialyzed using a buffer containing 5 mM Hepes-KOH (pH 7.8) and 0.5 mM DTT. The purity of the recombinant protein was determined by SDS/PAGE, and the concentration measured using a Qubit 3.0 fluorometer (Life technologies). […] On the other hand, the catalytic activity of CpLDH recombinant protein for the oxidation of lactate to pyruvate was determined by measuring the change in optical density of a 100 μl reaction mixture containing 100 mM lactate, 1 mM NAD^+, 100 mM Tris, pH 9.2, with varying concentrations of CpLDH recombinant protein at 25° C. […] In all assays, reaction mixtures without recombinant CpLDH protein were included as negative controls. All assays were performed in triplicate and repeated at least thrice. The change in optical density was measured every 15 seconds for a total of 2 minutes using a Spectra Max 384 Plus plate reader (Molecular Devices) at a wavelength of 340 nm.
# Screening compounds for inhibitory activity against CpLDH. The chemical compounds were obtained from the National Cancer Institute/Developmental Therapeutics Program Open Chemical Repository. They consisted of a diverse set of compounds (n=27) reported previously (Int J Parasitol Drugs Drug Resist. 2016; 6(1), 44-53), and a Mechanistic Set IV compounds (n=800). The compounds were reconstituted in dimethyl sulfoxide (DMSO) as stock solutions. Just before use, aliquots of the stock solutions were diluted in sterile distilled water to generate working solutions, such that the final amount of DMSO added to the reaction mixtures was less than 1% (V/V). The compounds were tested for their inhibitory effect against the enzymatic activity of recombinant His-tagged CpLDH for catalyzing the reduction of pyruvate to lactate. […] Control reactions without recombinant CpLDH protein were included. Reactions were performed in triplicate and repeated at least thrice. The change in optical density was measured every 15 seconds for a total of 2 minutes using a Spectra Max 384 Plus plate reader (Molecular Devices) at a wavelength of 340 nm.
compound,measurement,setting,value
O=C1c2ccccc2C(=O)c2c(O)c(O)cc(O)c21 [NSC10447],IC50 at 24 h,[1],290 µM
same,IC50,[2],46.3 µM
same,effect on catalytic activity of recombinant CpLDH,"[2]; 20 μM compound, 10 mM pyruvate, 1 mM NADH",significant (P<0.05) inhibitory effect
